Experimental data reported in patent publication US9115122B2, “Non-ATP dependent inhibitors of extracellular signal-regulated kinase (ERK)” (UNIVERSITY OF MARYLAND, BALTIMORE, priority 2012, dated 2015).

How the values were obtained:
[1] = target: ERK2 wild type (WT) (Rattus norvegicus (Rat), UniProt P63086); experiment: Fluorescence quenching (FQ) binding affinity; settings: 1 nM to 20 μM test compound
[2] = target: ERK2 T157A (Rattus norvegicus (Rat), UniProt P63086, T157A); experiment: Fluorescence quenching (FQ) binding affinity; settings: read-out: KD T157A (Site1)
ERK2 T157A, sequence (P63086 whole entry T157A): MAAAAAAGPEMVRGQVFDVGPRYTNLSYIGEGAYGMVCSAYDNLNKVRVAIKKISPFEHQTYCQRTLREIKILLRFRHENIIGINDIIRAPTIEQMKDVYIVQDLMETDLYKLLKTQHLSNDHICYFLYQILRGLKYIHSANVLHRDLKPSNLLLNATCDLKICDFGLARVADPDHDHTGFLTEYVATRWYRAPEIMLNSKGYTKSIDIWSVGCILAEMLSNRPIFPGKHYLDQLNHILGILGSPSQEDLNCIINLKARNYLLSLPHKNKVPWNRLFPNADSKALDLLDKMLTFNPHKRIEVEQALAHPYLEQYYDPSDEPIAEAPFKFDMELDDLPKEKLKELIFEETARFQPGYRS

[3] = target: ERK2 D319N (Rattus norvegicus (Rat), UniProt P63086, D319N); experiment: Fluorescence quenching (FQ) binding affinity; settings: read-out: KD D319N (Site1)
ERK2 D319N, sequence (P63086 whole entry D319N): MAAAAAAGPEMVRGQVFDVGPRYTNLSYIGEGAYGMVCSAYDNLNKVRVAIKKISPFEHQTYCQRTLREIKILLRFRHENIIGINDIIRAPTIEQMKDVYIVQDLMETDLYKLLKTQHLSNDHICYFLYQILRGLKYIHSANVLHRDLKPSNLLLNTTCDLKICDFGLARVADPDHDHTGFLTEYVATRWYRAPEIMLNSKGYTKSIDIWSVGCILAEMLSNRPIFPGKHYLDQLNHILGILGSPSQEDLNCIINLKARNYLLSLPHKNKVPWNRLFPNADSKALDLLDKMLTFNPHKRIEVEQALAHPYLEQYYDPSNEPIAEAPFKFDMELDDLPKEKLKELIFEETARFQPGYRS

[4] = target: ERK2 T157A/D319N (Rattus norvegicus (Rat), UniProt P63086, D319N/T157A); experiment: Fluorescence quenching (FQ) binding affinity; settings: read-out: KD T157A/D319N (Site1)
ERK2 T157A/D319N, sequence (P63086 whole entry T157A/D319N): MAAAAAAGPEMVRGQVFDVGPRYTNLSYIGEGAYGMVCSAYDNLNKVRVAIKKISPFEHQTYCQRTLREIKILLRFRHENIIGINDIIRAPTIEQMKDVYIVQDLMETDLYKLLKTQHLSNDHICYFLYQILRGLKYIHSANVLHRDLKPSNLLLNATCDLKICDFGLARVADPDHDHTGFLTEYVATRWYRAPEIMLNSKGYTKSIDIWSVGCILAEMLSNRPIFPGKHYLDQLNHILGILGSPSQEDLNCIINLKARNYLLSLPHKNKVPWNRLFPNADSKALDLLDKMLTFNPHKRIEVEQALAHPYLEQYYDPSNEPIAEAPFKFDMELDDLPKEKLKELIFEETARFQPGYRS

[5] = test system: A375 melanoma cells; experiment: Cell proliferation WST-1 assay, single dose (Example 4); assay type: cell-based; settings: 100 μM, 48 hours
Summary of the method: (§1)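 Seed ~5000 cells/well; recover 16-20 h; treat with compound 48 h; add WST-1; read A450, subtract A650; normalize to DMSO-only cells.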

[6] = test system: HL-60 leukemic cells; experiment: as above; assay type: cell-based; settings: 100 μM, 48 hours
Summary of the method: as §1

[7] = test system: HeLa cervical carcinoma cells; experiment: as above; assay type: cell-based; settings: 100 μM, 48 hours
Summary of the method: as §1

[8] = test system: Jurkat T-cell leukemia cells; experiment: as above; assay type: cell-based; settings: 100 μM, 48 hours
Summary of the method: as §1

[9] = test system: RPMI-7951 melanoma cells; experiment: as above; assay type: cell-based; settings: 100 μM, 48 hours
Summary of the method: as §1

[10] = test system: SK-MEL-28 melanoma cells; experiment: as above; assay type: cell-based; settings: 100 μM, 48 hours
Summary of the method: as §1

[11] = test system: A375 melanoma cells; experiment: Dose-response growth inhibition (GI50) of select compounds; assay type: cell-based; settings: Homo sapiens, A-375, 48 h, two days
Description: (§2) An example of the dose response curve for compound 30h and the BRaf inhibitor PLX4032 for inhibiting the growth of melanoma cell lines is shown in FIG. 14. […] A summary of GI50 values for select compounds along with comparisons to know ERK pathway inhibitors in various cell lines is shown in Table 13. […] First, thiazolidinedione compounds have been identified to be selective inhibitors of cancer cell lines containing activated ERK signaling. Second, changes in the 4-ethoxyphenyl component of the parent compound 76 improve selectivity and potency for inhibiting melanoma cell growth. Third, compound 30h is a potent inhibitor of melanoma cell lines that have become resistant to the clinically relevant BRaf and MEK inhibitors. […] Lastly, 30h is as potent as the ATP-competitive pyrazolopyridazinamine ERK inhibitor (FR180204) in preventing melanoma cell proliferation and provides an alternative non-ATP-dependent approach to target cancer cells that are dependent on active ERK signaling.
(§3) Melanoma cells (A375, SK-MEL-28, and RPMI7951) were seeded at a density of 5,000 per well in 96-well plate. After overnight incubation, cells were treated with varying doses of PLX4032 (A) or 31h (B) for two days. Cell viability was determined by the addition of Cell Titer-Blue Reagent (20 μL/well) followed by 2 hours of incubation at 37° C. after which fluorescence was recorded (555/585 nm). Cell viability was expressed as percentage of vehicle control and data represent the average of three individual experiments.

[12] = test system: RPMI7951 melanoma cells; experiment: as above; assay type: cell-based; settings: Homo sapiens, RPMI-7951, 48 h, two days
Description: as §2, §3

[13] = test system: SK-MEL-28 melanoma cells; experiment: as above; assay type: cell-based; settings: Homo sapiens, SK-MEL-28, 48 h, two days
Description: as §2, §3

[14] = test system: HeLa cells; experiment: as above; assay type: cell-based; settings: Homo sapiens, HeLa
[15] = test system: Jurkat cells; experiment: as above; assay type: cell-based; settings: Homo sapiens, Jurkat
[16] = test system: activator protein-1 (AP-1) promoter; experiment: AP-1 promoter luciferase assay, HeLa cells (Example 4); assay type: cell-based; settings: Homo sapiens, EGF 25 ng/mL, read-out: estimated IC50 AP-1 promoter activity
Description: (§4) HeLa cells were seeded in 24-well plates (4×10^4 cells/well) and incubated 18 hours prior to achieve ˜60-70% confluent. Cells were transfected with activator protein-1 (pAP1(PMA)-TA-Luc; Clontech) or the serum response element (pGL4.33-SRE; Promega) luciferase reporter plasmids (250 ng/well) using Lipofectamine™ (Invitrogen). After 16 hours, cells were treated with increasing amount of compounds as indicated for 20 minutes, followed by stimulation with EGF (25 ng/mL) for 4.5 hr. The luciferase activity in the cell extracts was determined with a Dual Luciferase Assay System (Promega) according to the manufacturer's instructions. Luciferase activities were monitored with a Lumat LB 9507 luminometer (Berthold Technology) and data were normalized to the amount of protein in each sample.

[17] = test system: serum response element (SRE); experiment: SRE promoter luciferase assay, HeLa cells (Example 4); assay type: cell-based; settings: Homo sapiens, EGF 25 ng/mL, read-out: estimated IC50 SRE promoter activity
Description: as §4

[18] = test system: A549 lung carcinoma cells; experiment: Colony formation assay; assay type: cell-based; settings: Homo sapiens, read-out: IC50 growth inhibition, colony formation, A549
Description: (§5) We have successfully used computer-aided drug design (CADD) to search for low-molecular-weight docking domain inhibitors of ERK. One of the compounds, identified as 76, binds ERK2 with a Kd value of 5 μM and blocks phosphorylation of the downstream ERK targets RSK-1 and Elk-1. Moreover, 76 inhibited growth of HeLa cervical carcinoma and A549 lung carcinoma cells as assessed by colony formation assay in a dose dependent manner with IC50 values of ˜20 μM.

[19] = test system: HeLa cervical carcinoma cells; experiment: Colony formation assay; assay type: cell-based; settings: Homo sapiens, read-out: IC50 growth inhibition, colony formation, HeLa
Description: as §5

ERK2 wild type (WT), sequence (P63086 whole entry): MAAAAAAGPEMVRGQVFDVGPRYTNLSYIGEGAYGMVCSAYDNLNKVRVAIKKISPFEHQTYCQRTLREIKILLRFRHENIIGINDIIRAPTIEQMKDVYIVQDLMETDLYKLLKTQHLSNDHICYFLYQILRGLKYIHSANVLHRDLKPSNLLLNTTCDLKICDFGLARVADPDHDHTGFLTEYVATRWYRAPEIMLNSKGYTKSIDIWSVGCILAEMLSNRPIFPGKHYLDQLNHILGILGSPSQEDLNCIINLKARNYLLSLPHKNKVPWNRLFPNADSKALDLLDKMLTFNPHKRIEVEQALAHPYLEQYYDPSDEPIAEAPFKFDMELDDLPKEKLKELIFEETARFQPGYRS

Kd [1]: 5 µM
Kd [2]: 6.1 ± 0.6 µM
Kd [3]: 7 ± 1 µM
Kd [4]: 6.4 ± 0.3 µM
GI50 [11]: 29 µM
GI50 [12]: 46 µM
GI50 [13]: 34 µM
GI50 [14]: > 100 µM
GI50 [15]: > 100 µM
IC50 [16]: ≤ 5 µM
IC50 [17]: ≤ 5 µM
IC50 [18]: ~20 µM
IC50 [19]: ~20 µM
Compound: CCOc1ccc(/C=C2\SC(=O)N(CCN)C2=O)cc1 [Compound 76, (Z)-3-(2-aminoethyl)-5-(4-ethoxybenzylidene)thiazolidine-2,4-dione]
Cell Viability (% of Vehicle) A375 [5]: 2.1 ± 2 % of Vehicle
Cell Viability (% of Vehicle) HL-60 [6]: 4.4 ± 1 % of Vehicle
Cell Viability (% of Vehicle) HeLa [7]: 53 ± 3 % of Vehicle
Cell Viability (% of Vehicle) Jurkat [8]: 59 ± 5 % of Vehicle
Cell Viability (% of Vehicle) RPMI-7951 [9]: 0.3 ± 0.02 % of Vehicle
Cell Viability (% of Vehicle) SK-MEL-28 [10]: 11 ± 7 % of Vehicle
